Experimental data taken from PMC4376459, “CXCR3 antagonist VUF10085 binds to an intrahelical site distinct from that of the broad spectrum antagonist TAK-779” (British Journal of Pharmacology, 2015).
Changes are numbered by the printed parent chain.

Assays:
CXCR3 Y271A = target: T1, CXCR3 Y271A (Homo sapiens, UniProt P49682, Y271A); test: Chemotaxis assay, L1.2 transfectants migrating to CXCL11; format: cell-based
T1 construct: expressed in transfected cells; host or cells: murine pre-B cell line L1.2, transient transfection
T1 sequence (P49682 1-368 Y271A): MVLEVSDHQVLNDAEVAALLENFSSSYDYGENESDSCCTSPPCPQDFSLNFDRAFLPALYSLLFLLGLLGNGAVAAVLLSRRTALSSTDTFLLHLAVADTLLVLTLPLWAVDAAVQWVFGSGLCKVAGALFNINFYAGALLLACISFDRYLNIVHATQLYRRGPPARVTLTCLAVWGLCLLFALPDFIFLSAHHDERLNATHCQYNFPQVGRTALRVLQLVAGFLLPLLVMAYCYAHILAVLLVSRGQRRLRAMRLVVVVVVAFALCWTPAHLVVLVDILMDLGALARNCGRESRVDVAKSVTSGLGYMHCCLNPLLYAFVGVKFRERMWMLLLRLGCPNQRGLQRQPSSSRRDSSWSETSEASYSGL
Description: (§1) A previously described pcDNA3 plasmid containing human wild type (WT) CXCR3 cDNA with an HA epitope tag encoded at the N terminus (Meiser et al., [2008]) was used as a template for the generation of point mutants by PCR using the QuikChange II site-directed mutagenesis kit (Stratagene, Amsterdam, the Netherlands). All constructs were verified by DNA sequencing (Eurofins MWG Operon, Ebersberg, Germany) before use. L1.2 cells were transiently transfected by electroporation with 1 μg of vector DNA/10^6 cells at 330V, 975μF and incubated overnight in medium supplemented with 10 mM of sodium butyrate to enhance gene expression.
(§2) Assays of chemotactic responsiveness were carried out as previously described (Vaidehi et al., [2009]) using 96-well ChemoTx® plates with 5 μm pores (Neuroprobe, Gaithersburg, MD, USA). Migrating cells were detected by the use of CellTiter Glo® Dye (Promega, Southampton, UK) and resulting luminescence measured using a TopCount scintillation counter (PerkinElmer, Waltham, MA, USA). Basal migration of cells to buffer alone was subtracted from the resulting data, with individual results expressed as a percentage of the total cells applied to the filter. In all experiments, each data point was assayed in duplicate. In every experiment, cells transiently expressing WT CXCR3 were used as a positive control.

CXCR3 Y205A = target: T2, CXCR3 Y205A (Homo sapiens, UniProt P49682, Y205A); test: as above; format: cell-based
T2 construct: expressed in transfected cells; host or cells: murine pre-B cell line L1.2, transient transfection
T2 sequence (P49682 1-368 Y205A): T1 sequence (P49682 1-368 Y271A) with Y205A, A271Y
Description: as §1, §2

CXCR3 V275A = target: T3, CXCR3 V275A (Homo sapiens, UniProt P49682, V275A); test: as above; format: cell-based
T3 construct: expressed in transfected cells; host or cells: murine pre-B cell line L1.2, transient transfection
T3 sequence (P49682 1-368 V275A): T1 sequence (P49682 1-368 Y271A) with A271Y, V275A
Description: as §1, §2

CXCR3 Y308A [1] = target: T4, CXCR3 Y308A (Homo sapiens, UniProt P49682, Y308A); test: Whole-cell 125I-CXCL11 binding assay, L1.2 transfectants
T4 construct: expressed in transfected cells; host or cells: murine pre-B cell line L1.2, transient transfection
T4 sequence (P49682 1-368 Y308A): T1 sequence (P49682 1-368 Y271A) with A271Y, Y308A

D112N-CXCR3 = target: T5, D112N-CXCR3 (Homo sapiens, UniProt P49682, D112N); test: as above; settings: D112N-CXCR3 transfectants (Figure 1); read-out: IC50 for displacement of 125I-CXCL11
T5 construct: expressed in transfected cells; host or cells: murine pre-B cell line L1.2, transient transfection
T5 sequence (P49682 1-368 D112N): T1 sequence (P49682 1-368 Y271A) with D112N, A271Y

CXCR3 Y308A [2] = target: T4, CXCR3 Y308A; test: Chemotaxis assay, L1.2 transfectants migrating to CXCL11; format: cell-based; settings: 30 nM CXCL11

Row | Molecule | % of WT chemotaxis to 30 nM CXCL11 (mean ± SEM) (CXCR3 Y271A) | % of WT chemotaxis to 30 nM CXCL11 (mean ± SEM) (CXCR3 Y205A) | % of WT chemotaxis to 30 nM CXCL11 (mean ± SEM) (CXCR3 V275A) | reduction in IC50 value, ligand binding (CXCR3 Y308A [1]; Y308A relative to WT) | IC50 (CXCR3 Y308A [1]; Y308A, 0.1 nM 125I-CXCL11, read-out: IC50 ligand binding (mean ± SEM)) | IC50 (D112N-CXCR3) | increase in IC50 value, chemotaxis (CXCR3 Y308A [2]; Y308A versus WT) | IC50 (CXCR3 Y308A [2]; Y308A, read-out: IC50 chemotaxis (mean ± SEM))
1 | CXCL11: recombinant human chemokine, CXCR3 agonist, purchased from PeproTech | 1.0 ± 0.6% | 35.5 ± 21.5% | 52.9 ± 8.2% | – | – | – | – | –
2 | Cc1ccc(-c2ccc3c(c2)C=C(C(=O)Nc2ccc(C[N+](C)(C)C4CCOCC4)cc2)CCC3)cc1.[Cl-] [TAK-779, N,N-dimethyl-N-[4-[[[2-(4-methylphenyl)-6,7-dihydro-5H-benzocyclohepten-8-yl]-carbonyl]amino]benzyl] tetrahydro-2H-pyran-4-aminium chloride] | – | – | – | twofold | 14.2 ± 3 µM | 17.2 µM | twofold | 41.4 ± 22.6 µM
